Assay results from patent EP4610269A1, “UROKINASE PLASMINOGEN ACTIVATOR SURFACE RECEPTOR (UPAR) LIGANDS FOR DIAGNOSTIC OR THERAPEUTIC USE” (3B Pharmaceuticals GmbH, priority 2024, dated 2025).
*1 amine or outer side, *2 acyl side, *3 side chain or, on linkers, in order; H or OH if unused. Where a SMILES comes first, the peptide text is derived from it. Bridges are numbered along the chain shown (N, C = ends). [ ]: non-standard residue; d: D form. The star is where a group is joined. DOTA = O=C(O)CN1CCN(CC(=O)O)CCN(CC(=O)*)CCN(CC(=O)O)CC1; Hyp = O=C(O)[C@@H]1C[C@@H](O)CN1; 3Pal = N[C@@H](Cc1cccnc1)C(=O)O; Pentanoyl(4-Me) = CC(C)CCC(=O)*; Cit = NC(=O)NCCC[C@H](N)C(=O)O; Suc = O=C(CCC(=O)[*:2])[*:1]; Nva = CCC[C@H](N)C(=O)O; Pentanoyl = CCCCC(=O)*; AEEA = NCCOCCOCC(=O)O

Experiments:
[1] = Plasma stability assay (mouse plasma); type: in vitro ADME; conditions: mouse plasma (sodium citrate 3.7%), 37°C, LC-MS quantification, read-out: % intact compound remaining after 6h incubation Mouse plasma
Protocol: In order to determine the stability of selected compounds of the invention in human and mouse plasma, a plasma stability assay was carried out. Such plasma stability assay measures degradation of compounds of the present invention in blood plasma. This is an important characteristic of a compound as compounds, with the exception of pro-drugs, which rapidly degrade in plasma, generally show poor in vivo efficacy. […] The stability is sufficient for the diagnostic, therapeutic and theragnostic use of these compounds according to the present invention.
The plasma stability samples were prepared by spiking 50 µl plasma aliquots (all sodium citrate 3.7%) with 1 µl of a 0.5 mM compound stock solution in DMSO. After vortexing the samples were incubated in a Thermomixer at 37°C for 0 and 6 hours. After incubation the samples were stored on ice until further treatment. All samples were prepared in duplicates.
A suitable internal standard was added to each sample (1 µl of a 0.5 mM stock solution in DMSO). Protein precipitation was performed using two different methods depending on the compound conditions as indicated in Table 13. • A) 250 µl of acetonitrile containing 1% trifluoroacetic acid was added. After incubation at room temperature for 30 min the precipitate was separated by centrifugation and 150 µl of the supernatant was diluted with 150 µl of 1% aqueous formic acid. • B) 150 µl of a zinc sulphate precipitation agent containing 78% 0.1 M zinc sulphate and 22% acetonitrile was added. After incubation at room temperature for 30 min the precipitate was separated by centrifugation. To 100 µl of the supernatant 10 µl of 1% formic acid was added followed by further incubation at 60°C for 10 min to complete the formation of the zinc chelate, if the compound contains a free DOTA moiety.
The determination of the analyte in the clean sample solutions was performed on an Agilent 1290 UHPLC system coupled to an Agilent 6530 Q-TOF mass spectrometer. The chromatographic separation was carried out on a Phenomenex BioZen XB-C18 HPLC column (50 x 2 mm, 1.7 µm particle size).
Two different elution gradients were applied using a mixture of 0.1% formic acid in water as eluent A and acetonitrile as eluent B: • A) 2% B to 41% in 7 min, 800 µl/min, 40°C. • B) 5% B to 50% B in 6 min, 800 µL/min, 40°C.
Mass spectrometric detection was performed in positive ion ESI mode by scanning the mass range from m/z 50 to 3000 with a sampling rate of 2 / sec.
(§1) From the mass spectrometric raw data the ion currents for the double or triple charged monoisotopic signal was extracted for both, the compound and the internal standard.
(§2) Quantitation was performed by external matrix calibration with internal standard using the integrated analyte signals.
Additionally, recovery was determined by spiking a pure plasma sample that only contained the internal standard after treatment with a certain amount of the compound.
Carry-over was evaluated by analysis of a blank sample (20% acetonitrile) after the highest calibration sample.
(§3) The result is stated as "% intact compound remaining after 6 h incubation" and means that from the amount of material at the start of the experiment the stated percentage is detected as unchanged material at the end of the experiment by LC-MS quantification. Since all compounds are more than 50% intact after 6 h they are considered as stable enough for diagnostic and therapeutic applications. Table 13: Results of the plasma stability assay

[2] = biological target: T1, Recombinant soluble human NEP (Homo sapiens, UniProt P08473); assay: Proteolytic stability assay against NEP; type: in vitro ADME; conditions: recombinant soluble human NEP, human NEP 100 ng/mL, compound 10 µM, 37°C, LC-MS quantification, read-out: % intact compound remaining after 24h incubation
T1 construct: Recombinant soluble human NEP; purchased BioTechne, Wiesbaden, Germany
Protocol: To assess the stability of compounds against NEP, the compounds were subjected to an in vitro assay based on the protocol described by Edelson et al. (Edelson, Makhlina et al. 2013).
Recombinant soluble human NEP (BioTechne, Wiesbaden, Germany) at a concentration of 100 ng/mL was mixed with the compound (10 µM) and a stable internal standard (10 µM) and incubated at 37°C. After several time points, samples were taken and analyzed with LC-MS.
The determination of the analyte in the clean sample solutions was performed on an Agilent 1290 UHPLC system coupled to an Agilent 6530 Q-TOF mass spectrometer. The chromatographic separation was carried out on a Phenomenex BioZen XB-C18 HPLC column (50 × 2 mm, 1.7 µm particle size) with gradient elution using a mixture of 0.1% formic acid in water as eluent A and acetonitrile as eluent B (2% B to 41% in 7 min, 800 µl/min, 40°C). Mass spectrometric detection was performed in positive ion ESI mode by scanning the mass range from m/z 50 to 3000 with a sampling rate of 2 / sec.
as §1, §2
The activity of NEP was examined using a commercially available chromogenic substrate of NEP.
as §3, with “24” for “6”, “14:” for “13:”, “NEP” for “plasma”

T1 sequence (P08473 52-750 limits assumed): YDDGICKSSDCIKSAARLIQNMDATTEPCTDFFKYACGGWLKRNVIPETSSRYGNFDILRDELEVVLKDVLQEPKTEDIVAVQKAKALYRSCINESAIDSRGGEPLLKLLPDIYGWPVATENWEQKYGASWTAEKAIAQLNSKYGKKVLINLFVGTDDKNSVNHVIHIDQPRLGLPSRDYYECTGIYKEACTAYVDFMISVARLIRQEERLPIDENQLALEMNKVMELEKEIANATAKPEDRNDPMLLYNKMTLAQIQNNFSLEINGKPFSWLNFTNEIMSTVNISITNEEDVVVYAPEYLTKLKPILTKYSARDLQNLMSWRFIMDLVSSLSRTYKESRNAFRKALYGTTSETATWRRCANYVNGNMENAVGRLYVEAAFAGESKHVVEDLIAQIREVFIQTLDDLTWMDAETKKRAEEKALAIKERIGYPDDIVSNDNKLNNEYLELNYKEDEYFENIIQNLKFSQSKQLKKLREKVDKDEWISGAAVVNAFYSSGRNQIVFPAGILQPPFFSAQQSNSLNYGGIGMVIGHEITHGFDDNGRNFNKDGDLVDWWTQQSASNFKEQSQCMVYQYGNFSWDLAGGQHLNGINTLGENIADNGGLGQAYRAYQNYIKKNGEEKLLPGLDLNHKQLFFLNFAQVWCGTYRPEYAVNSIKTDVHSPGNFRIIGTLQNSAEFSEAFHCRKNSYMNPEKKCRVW

remaining at 6 h, 9.8 µM [1]	remaining at 24 h, 10 µM [2]	Compound
82%	86%	CCCCC(=O)N[C@H]1CSSC[C@@H](C(N)=O)NC(=O)[C@H](CCC)NC(=O)[C@H]([C@@H](C)CC)NC(=O)[C@@H]2C[C@@H](O)CN2C(=O)[C@@H]2CCCN2C(=O)[C@H](Cc2ccccc2)NC(=O)[C@H](Cc2ccc(O)cc2)NC(=O)[C@H](CCCCNC(=O)CN2CCN(CC(=O)O)CCN(CC(=O)O)CCN(CC(=O)O)CC2)NC(=O)[C@H](CCCNC(N)=O)NC1=O [UPAR-261, Pent-[Cys-Cit-Lys(DOTA)-Tyr-Phe-Pro-Hyp-Ile-Nva-Cys]-NH2] (Pentanoyl-C[Cit]K(DOTA)YFP[Hyp]I[Nva]C-NH2; disulfide 1-10)
> 95%	> 95%	CCC[C@H](NC(=O)CCC(=O)O)C(=O)N[C@H]1CSSC[C@@H](C(N)=O)NC(=O)[C@H](CCC)NC(=O)[C@H]([C@@H](C)CC)NC(=O)[C@@H]2C[C@@H](O)CN2C(=O)[C@@H]2CCCN2C(=O)[C@H](Cc2ccccc2)NC(=O)[C@H](Cc2ccc(O)cc2)NC(=O)[C@H](CCCCNC(=O)CN2CCN(CC(=O)O)CCN(CC(=O)O)CCN(CC(=O)O)CC2)NC(=O)[C@H](CCCNC(N)=O)NC1=O [UPAR-293, HO-Succinyl-Nva-[Cys-Cit-Lys(DOTA)-Tyr-Phe-Pro-Hyp-Ile-Nva-Cys]-NH2] (Suc-[Nva]C[Cit]K(DOTA)YFP[Hyp]I[Nva]C-NH2; disulfide 2-11)
95%	88%	CC[C@H](C)[C@@H]1NC(=O)[C@@H](CCCNC(=N)N)NC(=O)[C@@H]2CCCN2C(=O)[C@H](Cc2ccccc2)NC(=O)[C@H](Cc2ccc(O)cc2)NC(=O)[C@H](CCCCNC(=O)CN2CCN(CC(=O)O)CCN(CC(=O)O)CCN(CC(=O)O)CC2)NC(=O)[C@H](CCCNC(N)=O)NC(=O)[C@@H](NC(=O)[C@H](CC(C)C)NC(=O)[C@H](CC(=O)O)NC(C)=O)CSSC[C@@H](C(N)=O)NC(=O)[C@H](CC(C)C)NC1=O [UPAR-306, Ac-Asp-Leu-[Cys-Cit-Lys(DOTA)-Tyr-Phe-Pro-arg-Ile-Leu-Cys]-NH2] (Ac-DLC[Cit]K(DOTA)YFP[dR]ILC-NH2; disulfide 3-12)
73%	70%	CC[C@H](C)[C@@H]1NC(=O)[C@@H](C)NC(=O)[C@@H]2CCCN2C(=O)[C@H](Cc2ccccc2)NC(=O)[C@H](Cc2ccc(O)cc2)NC(=O)[C@H](CCC(N)=O)NC(=O)[C@H](CCCNC(N)=O)NC(=O)[C@@H](NC(=O)CCC(C)C)CSSC[C@@H](C(N)=O)NC(=O)[C@H](CC(C)C)NC1=O [UPAR-338, iHex-[Cys-Cit-Gln-Tyr-Phe-Pro-ala-Ile-Leu-Cys]-NH2] ({Pentanoyl(4-Me)}-C[Cit]QYFP[dA]ILC-NH2; disulfide 1-10)
78%	> 95%	CC[C@H](C)[C@@H]1NC(=O)[C@@H]2CCCN2C(=O)[C@@H]2CCCN2C(=O)[C@H](Cc2ccccc2)NC(=O)[C@H](Cc2ccc(O)cc2)NC(=O)[C@H](CCCCNC(=O)CN2CCN(CC(=O)O)CCN(CC(=O)O)CCN(CC(=O)O)CC2)NC(=O)[C@H](CCCNC(N)=O)NC(=O)[C@@H](NC(=O)CCC(C)C)CSSC[C@@H](C(N)=O)NC(=O)[C@H](CC(C)C)NC1=O [UPAR-382, iHex-[Cys-Cit-Lys(DOTA)-Tyr-Phe-Pro-Pro-Ile-Leu-Cys]-NHz] ({Pentanoyl(4-Me)}-C[Cit]K(DOTA)YFPPILC-NH2; disulfide 1-10)

The remaining lines, values behind:

Compound	remaining at 6 h, 9.8 µM [1]	remaining at 24 h, 10 µM [2]
CCCCC(=O)N[C@H]1CSSC[C@@H](C(N)=O)NC(=O)[C@H](CCC)NC(=O)[C@H]([C@@H](C)CC)NC(=O)[C@@H]2C[C@@H](O)CN2C(=O)[C@@H]2CCCN2C(=O)[C@H](Cc2ccccc2)NC(=O)[C@H](Cc2cccnc2)NC(=O)[C@H](CCCCNC(=O)CN2CCN(CC(=O)O)CCN(CC(=O)O)CCN(CC(=O)O)CC2)NC(=O)[C@H](CCCNC(N)=O)NC1=O [UPAR-138, Pent-[Cys-Cit-Lys(DOTA)-Mpa-Phe-Pro-Hyp-Ile-Nva-Cys]-NH2] (Pentanoyl-C[Cit]K(DOTA)[3Pal]FP[Hyp]I[Nva]C-NH2; disulfide 1-10)	91%	94%
CC[C@H](C)[C@@H]1NC(=O)[C@@H]2C[C@@H](O)CN2C(=O)[C@@H]2CCCN2C(=O)[C@H](Cc2ccccc2)NC(=O)[C@H](Cc2ccc(O)cc2)NC(=O)[C@H](CCC(N)=O)NC(=O)[C@H](CCCNC(N)=O)NC(=O)[C@@H](NC(=O)CCC(C)C)CSSC[C@@H](C(N)=O)NC(=O)[C@H](CC(C)C)NC1=O [UPAR-174, iHex-[Cys-Cit-Gln-Tyr-Phe-Pro-Hyp-Ile-Leu-Cys]-NH2] ({Pentanoyl(4-Me)}-C[Cit]QYFP[Hyp]ILC-NH2; disulfide 1-10)	71%	90%
CC[C@H](C)[C@@H]1NC(=O)[C@@H](C)NC(=O)[C@@H]2CCCN2C(=O)[C@H](Cc2ccccc2)NC(=O)[C@H](Cc2ccc(O)cc2)NC(=O)[C@H](CCCCNC(=O)CN2CCN(CC(=O)O)CCN(CC(=O)O)CCN(CC(=O)O)CC2)NC(=O)[C@H](CCCNC(N)=O)NC(=O)[C@@H](NC(=O)[C@H](CC(C)C)NC(=O)[C@H](CC(=O)O)NC(C)=O)CSSC[C@@H](C(N)=O)NC(=O)[C@H](CC(C)C)NC1=O [UPAR-189, Ac-Asp-Leu-[Cys-Cit-Lys(DOTA)-Tyr-Phe-Pro-ala-Ile-Leu-Cys]-NH2] (Ac-DLC[Cit]K(DOTA)YFP[dA]ILC-NH2; disulfide 3-12)	> 95%	94%
CC[C@H](C)[C@@H]1NC(=O)[C@@H]2CCCN2C(=O)[C@@H]2CCCN2C(=O)[C@H](Cc2ccccc2)NC(=O)[C@H](Cc2ccc(O)cc2)NC(=O)[C@H](CCC(N)=O)NC(=O)[C@H](CCCNC(N)=O)NC(=O)[C@@H](NC(=O)[C@H](CC(C)C)NC(=O)COCCOCCNC(=O)CN2CCN(CC(=O)O)CCN(CC(=O)O)CCN(CC(=O)O)CC2)CSSC[C@@H](C(N)=O)NC(=O)[C@H](CC(C)C)NC1=O [UPAR-229, DOTA-O2Oc-Leu-[Cys-Cit-Gln-Tyr-Phe-Pro-Pro-Ile-Leu-Cys]-NHz] ({DOTA-AEEA}-LC[Cit]QYFPPILC-NH2; disulfide 2-11)	90%	84%
CC[C@H](C)[C@@H]1NC(=O)[C@@H](C)NC(=O)[C@@H]2CCCN2C(=O)[C@H](Cc2ccccc2)NC(=O)[C@H](Cc2ccc(O)cc2)NC(=O)[C@H](CCC(N)=O)NC(=O)[C@H](CCCNC(N)=O)NC(=O)[C@@H](NC(=O)[C@H](CC(C)C)NC(=O)COCCOCCNC(=O)CN2CCN(CC(=O)O)CCN(CC(=O)O)CCN(CC(=O)O)CC2)CSSC[C@@H](C(N)=O)NC(=O)[C@H](CC(C)C)NC1=O [UPAR-245, DOTA-O2Oc-Leu-[Cys-Cit-Gln-Tyr-Phe-Pro-ala-Ile-Leu-Cys]-NH2] ({DOTA-AEEA}-LC[Cit]QYFP[dA]ILC-NH2; disulfide 2-11)	74%	72%
